As a reminder, the inhibition is the share of the control response that was lost under treatment.

The first test deals with T1, ACC (acetyl CoA carboxylase) purified from liver of male SD rat (Rattus norvegicus, UniProt P11497).
T1 construct: applied to a monomeric avidin sepharose column, and washed with buffer B. The ACC was eluted with buffer B containing 2 mM d-biotin; from tissue; host or cells: liver of male SD rat
The test can be described thus: Measurement of ACC inhibition activity ([14C]-NaHCO3 incorporation). It counts as biochemical. As to conditions: ACC inhibition activity rate at 1 μM; Table 2-III, Mode 3 acetylene/oxadiazole/thiazole compounds (numbers = x-III); read-out: ACC Inhibition (%). On the procedure: A male SD rat was deprived of food for two days and then fed a high-sucrose diet (component) for two days. While anesthetized with ether, the descending vena cava was cut upon, the animal was bled, and the liver was rapidly recovered. In an ice-cooled buffer solution A (225 mM mannitol, 75 mM sucrose, 10 mM Tris-HCl (pH 7.5), 0.05 mM EDTA, 5 mM potassium citrate, 2.5 mM MgCl2, 10 mg/L pepstatin A, 10 mg/L leupeptin, 1 mM PMSF), the liver was homogenized with a polytone homogenizer. A quantity of buffer A nine times the weight of the liver was added, the mixture was centrifuged for 10 minutes at 1,000 g, the supernatant was recovered, and the supernatant was centrifuged for another 10 minutes at 17,000 g.
Ammonium sulfate was added to 35 percent saturation to the obtained supernatant. The mixture was stirred for 45 minutes and then centrifuged for 10 minutes at 17,000 g. Buffer solution B (100 mM Tris-HCl (pH 7.5), 500 mM NaCl, 1 mM EDTA, 0.1 mM DTT, 10 percent glycerol, 10 mg/L pepstatin A, 10 mg/L leupeptin, 0.5 mM PMSF) was added to the obtained precipitate and dissolved. The solution was then centrifuged for 20 minutes at 40,000 g. The supernatant was dialyzed overnight against buffer C (100 mM Tris-HCl (pH 7.5), 500 mM NaCl, 1 mM EDTA, 0.1 mM DTT, 5 percent glycerol).
The dialyzed supernatant was passed through a […], applied to a monomeric avidin sepharose column, and washed with buffer B. The ACC was eluted with buffer B containing 2 mM d-biotin.
(2 Measurement of ACC Inhibition Activity)
The compounds synthesized in the above-described embodiments were dissolved in DMSO and charged to glass vials. 250 μL of ACC-containing reaction solution (40 mM Tris-HCl (pH 7.5), 40 mM MgCl2, 40 mM sodium citrate, and 2 mM DTT) was added. The mixture was heated for 30 minutes at 37° C. in a thermostatic chamber and then cooled with ice. To reaction solution 1 was added 250 μL of reaction solution 2 containing [14C]—NaHCO3 (40 mM Tris-HCl (pH 7.5), 2 mM DTT, 8 mM ATP, 0.5 mM acetyl CoA) and the mixture was heated for 10 minutes at 37° C. 100 μL of 1N HCl was added to stop the reaction. Water in the reaction solution was removed with a centrifugal evaporator, a scintillator was added, the solid component was dissolved, and the 14C radioactivity was measured with a liquid scintillation counter. The ACC inhibition activity of each compound was calculated from the following equation and converted to the ACC inhibition activity rate (%) at 1 μM.
ACC inhibition rate (%)=(1−(a−c)/(b−c))×100 a. Radioactivity when test drug added b: Radioactivity when test drug not added c: Blank* *Reaction solution 1 to which 100 μL of 1N HCl was added before mixing reaction solution 1 and reaction solution 2
For `O=C(O)CNC(=O)Nc1ccc(C#Cc2cccc(C(F)(F)F)c2)cc1` [compound 65], the inhibition at 1 µM is 64%.
The same measure, in the same setting: with `O=C(Nc1ccc(C#Cc2cccc(C(F)(F)F)c2)cc1)NC(Cc1ccccc1)C(=O)O` (stereo not drawn) [compound 66] the figure was 73%; with `O=C1c2cccc3cccc(c23)C(=O)N1c1cccc(C#Cc2cccc(C(F)(F)F)c2)c1` [compound 70], 62%; with `O=C1C(c2ccccc2)=C(c2ccccc2)C(=O)N1c1cccc(C#Cc2cccc(C(F)(F)F)c2)c1` [compound 74], 66%.
The same measure, in the same setting: the value for `O=[N+]([O-])c1ccccc1S(=O)(=O)Nc1ccc(-c2csc(-c3ccccc3)n2)cc1` [compound 77] was 64%; that for `O=S(=O)(Nc1ccc(-c2csc(-c3ccccc3)n2)cc1)c1ccccc1NO` [compound 78] was 55%.
Same read-out and setting: with `O=[N+]([O-])c1ccccc1S(=O)(=O)Nc1cccc(-c2csc(-c3ccccc3)n2)c1` [compound 82] the figure was 63%; with `Nc1cccc(S(=O)(=O)Nc2ccc(-c3csc(-c4ccccc4)n3)cc2)c1` [compound 91], 65%.
For `O=C(O)c1ccccc1C(=O)Nc1ccc(-c2csc(-c3cc(C(F)(F)F)ccc3F)n2)cc1` [compound 99], the inhibition at 1 µM amounted to 52%.
The same measure, in the same setting: with `O=C(Nc1ccc(-c2csc(-c3ccccc3)n2)cc1)N[C@H](Cc1ccccc1)C(=O)O` [compound 103] the figure was 63%.
Turning to `O=C(O)CCC(NC(=O)OCc1ccccc1)C(=O)Nc1ccc(-c2csc(-c3ccccc3)n2)cc1` (stereo not drawn) [compound 104], the inhibition at 1 µM amounted to 66%.
Turning to `CC(C)c1ccc(S(=O)(=O)NC(=O)c2ccc(-c3csc(-c4ccc(C#Cc5cccc(C(F)(F)F)c5)cc4)n3)cc2)cc1` [compound 105], the inhibition at 1 µM stood at 99%.
Still for that read-out and setting: the value for `CC(C)c1ccc(S(=O)(=O)NC(=O)c2cccc(-c3nc(-c4ccc(-c5csc(-c6ccc(C(F)(F)F)cc6)n5)cc4)no3)c2)cc1` [compound 106] was 97%.

Staying with this test, now noted: ACC inhibition activity rate at 1 μM; Table 3-I, Mode 1 quinoline compounds (numbers = x-I); read-out: ACC Inhibition (%).
On to `CCCCS(=O)(=O)NC(=O)C1CCc2ccccc2[C@@H]1NC(=O)c1ccc2nc(-c3cc(C(F)(F)F)cc(C(F)(F)F)c3)ccc2c1` (stereo partly drawn) [compound 57], for which the inhibition at 1 µM came to 59%.
The same measure, in the same setting: the value for `CCCCS(=O)(=O)NC(=O)[C@@H]1C[C@@H]2C[C@@H](C2(C)C)[C@]1(C)NC(=O)c1ccc2nc(-c3cc(C(F)(F)F)cc(C(F)(F)F)c3)ccc2c1` [compound 58] was 46%; that for `CCCCS(=O)(=O)NC(=O)[C@@H]1C[C@H]2C[C@H](C2(C)C)[C@@]1(C)NC(=O)c1ccc2nc(-c3cc(C(F)(F)F)cc(C(F)(F)F)c3)ccc2c1` [compound 59] was 74%.
Regarding `O=C(O)c1ccc(-c2ccc3nc(-c4cc(C(F)(F)F)cc(C(F)(F)F)c4)ccc3c2)o1` [compound 82], the inhibition at 1 µM came out at 34%.
On the same count and under the same terms, with `CC(C)(C)c1ccc(C(=O)NS(=O)(=O)c2ccccc2NC(=O)c2ccc3nc(-c4cc(C(F)(F)F)cc(C(F)(F)F)c4)ccc3c2)cc1` [compound 83] the figure was 98%.
For the compound `CCCCS(=O)(=O)NC(=O)CC(NC(=O)c1ccc2nc(-c3cc(C(F)(F)F)cc(C(F)(F)F)c3)ccc2c1)c1cccc2ccccc12` (stereo not drawn) [compound 94], the inhibition at 1 µM turned out to be 50%.
In the case of `CCCCS(=O)(=O)NC(=O)CC(NC(=O)c1ccc2nc(-c3cc(C(F)(F)F)cc(C(F)(F)F)c3)ccc2c1)c1cccc(N)c1` (stereo not drawn) [compound 102], the inhibition at 1 µM turned out to be 45%.
On the same count and under the same terms, the value for `CCCCCC(=O)NS(=O)(=O)c1ccccc1NC(=O)c1ccc2nc(-c3cc(C(F)(F)F)cc(C(F)(F)F)c3)c(CCCl)cc2c1` [compound 103] was 50%.

The same test, now with this note: ACC inhibition activity rate at 1 μM; Table 4-IV, Mode 4 benzenediamine compounds (numbers = x-IV); read-out: ACC Inhibition (%).
Consider `CC(C)CCN(C)c1ccc(-c2noc(-c3cccc(C(=O)NS(=O)(=O)c4ccccc4)c3)n2)cc1N(CCCc1ccccc1)CCCc1ccccc1` [compound 56], for which the inhibition at 1 µM was 100%.
Still for that read-out and setting: with `CC(C)CCN(C)c1ccc(-c2noc(-c3cccc(C(=O)NS(=O)(=O)c4ccccc4)c3)n2)cc1NCC1=CCCCC1` [compound 57] the figure was 100%; with `CC(C)CCN(C)c1ccc(-c2noc(-c3cccc(C(=O)NS(=O)(=O)c4ccccc4)c3)n2)cc1NC1C=CCCC1` (stereo not drawn) [compound 59], 100%; with `CC(C)CCN(C)c1ccc(-c2noc(-c3cccc(C(=O)NS(=O)(=O)c4ccccc4)c3)n2)cc1NCc1nccn1C` [compound 60], 61%.
The same measure, in the same setting: with `CN(C)CCNc1ccc(C(=O)Nc2cccc(C(=O)NS(=O)(=O)c3ccccc3)c2)cc1[N+](=O)[O-]` [compound 62] the figure was 53%.
For the compound `O=C(Nc1cccc(C(=O)NS(=O)(=O)c2ccccc2)c1)c1ccc(NCCN2CCCC2)c([N+](=O)[O-])c1` [compound 67], the inhibition at 1 µM worked out at 58%.
Same read-out and setting: the value for `Cc1ccccc1S(=O)(=O)NC(=O)CC(NC(=O)c1ccc(N(C)CCC(C)C)c(NCc2ccccc2)c1)C1CCCCC1` (stereo not drawn) [compound 82] was 56%.
On the same count and under the same terms, the value for `Cc1ccccc1S(=O)(=O)NC(=O)CC(NC(=O)c1ccc(N(C)CCC(C)C)c(NCC2CCCCC2)c1)C1CCCCC1` (stereo not drawn) [compound 83] was 92%.
Still for that read-out and setting: the value for `CC(C)CCN(C)c1ccc(C(=O)NC(CC(=O)NS(=O)(=O)c2ccccc2)C2CCCCC2)cc1NC(C)C` (stereo not drawn) [compound 84] was 52%; that for `CC(C)CCN(C)c1ccc(C(=O)NC(CC(=O)NS(=O)(=O)c2ccccc2)C2CCCCC2)cc1NC1CCC1` (stereo not drawn) [compound 85] was 59%.
Regarding `CC(C)CCN(C)c1ccc(C(=O)NC(CC(=O)NS(=O)(=O)c2ccccc2)C2CCCCC2)cc1NCc1ccco1` (stereo not drawn) [compound 90], the inhibition at 1 µM amounted to 62%.
Still for that read-out and setting: with `CC(C)CCN(C)c1ccc(C(=O)NC(CC(=O)NS(=O)(=O)c2ccccc2)C2CCCCC2)cc1NCc1cccs1` (stereo not drawn) [compound 91] the figure was 70%; with `CC(C)CCN(C)c1ccc(C(=O)NC(CC(=O)NS(=O)(=O)c2ccccc2)C2CCCCC2)cc1NCc1nccs1` (stereo not drawn) [compound 92], 49%.
On the same count and under the same terms, with `CC(C)CCN(C)c1ccc(C(=O)NC(CC(=O)NS(=O)(=O)c2ccccc2)C2CCCCC2)cc1N(C)Cc1ccccc1` (stereo not drawn) [compound 93] the figure was 84%.
On the same count and under the same terms, the value for `CC(C)CCN(C)c1ccc(C(=O)NC(CC(=O)NS(=O)(=O)c2ccccc2)C2CCCCC2)cc1N(C)CC1CCCCC1` (stereo not drawn) [compound 94] was 96%; that for `CC(C)CCN(C)c1ccc(-c2noc(-c3cccc(C(=O)NS(=O)(=O)c4ccccc4)c3)n2)cc1NCc1ccc(O)cc1` [compound 95] was 100%.
On to `CC(C)CCN(C)c1ccc(-c2noc(-c3cccc(C(=O)NS(=O)(=O)c4ccccc4)c3)n2)cc1NCc1cccc(O)c1` [compound 96], for which the inhibition at 1 µM came to 95%.
For `CC(C)CCN(C)c1ccc(-c2noc(-c3cccc(C(=O)NS(=O)(=O)c4ccccc4)c3)n2)cc1NCc1ccccc1O` [compound 97], the inhibition at 1 µM was 98%.
Same read-out and setting: with `COc1cccc(CNc2cc(-c3noc(-c4cccc(C(=O)NS(=O)(=O)c5ccccc5)c4)n3)ccc2N(C)CCC(C)C)c1` [compound 98] the figure was 100%; with `CC(C)CCN(C)c1ccc(-c2noc(-c3cccc(C(=O)NS(=O)(=O)c4ccccc4)c3)n2)cc1NCc1cccc(C(=O)O)c1` [compound 100], 72%.
The same measure, in the same setting: the value for `CC(C)CCN(C)c1ccc(-c2noc(-c3cccc(C(=O)NS(=O)(=O)c4ccccc4)c3)n2)cc1NCc1cccc(F)c1` [compound 101] was 100%; that for `CC(C)CCN(C)c1ccc(-c2noc(-c3cccc(C(=O)NS(=O)(=O)c4ccccc4)c3)n2)cc1NCc1ccc2ccccc2c1` [compound 102] was 100%; that for `Cc1ccccc1S(=O)(=O)NC(=O)c1cccc(-c2nc(-c3ccc(N(C)CCC(C)C)c(NCc4ccccc4)c3)no2)c1` [compound 103] was 100%.
In the case of `CC(C)CCN(C)c1ccc(-c2noc(-c3cccc(C(=O)NS(=O)(=O)c4ccccc4)c3)n2)cc1NC(C)c1ccccc1` (stereo not drawn) [compound 106], the inhibition at 1 µM was found to be 100%.

The record behind these values is patent US7402696B2, “Benzene compounds” (Ajinomoto Co., Inc., priority 2004, dated 2008).
